One data set concerns gut microbiota. Conditions: 300 mg/kg intraperitoneal once daily for 5 consecutive days; previous study [20]; cited from earlier work.
The subject of data set [1] is IL-17. The experiment in a line: ELISA of IL-17 in the brain. The format is in vivo, mouse. As to conditions: mice without MCAO; 1 mg/kg by gastric gavage after each valeric sodium 100 mg/kg intraperitoneal injection, 7 days. The method, then:
(§1) Mice were weighed and anesthetized with isoflurane at 24 h after MCAO. Blood samples were obtained from the right heart after thoracotomy. Blood was centrifuged (13,000 g, 4° C.) after it had been placed at 4° C. for 2 h for the collection of serum. After the collection of blood, mice were perfused with 4° C. saline for brain tissue harvesting. The cerebral cortex (anteroposterior: −1.5 to 2.5 mm, mediolateral: 1.0 to 3.0 mm) was dissected out. All dissection procedures were performed on ice.
(§2) IL-10, IL-17, IL-1β and IL-6 in the serum and brain were detected by using ELISA kits (catalog number: M1000B, M1700, MLB00C and D6050, R&D SYSTEM, Inc., Minneapolis, MN, USA) as we described before. The brain tissues were homogenized on ice in the RIPA buffer containing 25 mM Tris-HCl with pH 7.6, 150 mM NaCl, 1% sodium deoxycholate and 0.1% SDS (catalog number: 89901, Thermo Scientific, Rockford, IL, USA) and a protease inhibitor cocktail containing 10 mg/ml aproteinin, 5 mg/ml peptastin, 5 mg/ml leupetin and 1 mM phenylmethane sulfonylfluoride (catalog number: SRE0055, Sigma-Aldrich, St. Louis, MO, USA). The supernatant was collected for ELISA detection after being centrifuged for 20 min (13,000 g, 4° C.) and the protein concentration was determined by the BCA method. Cytokines in the serum and supernatant of brain were detected according to the manufacturer's instruction. The amount of IL-10, IL-17, IL-1β and IL-6 in each sample in the brain was normalized by its protein content.
On the technique in general: In an ELISA, binding on a coated surface is turned into a signal by an enzyme label.

Data set [2] relates to IL-17. The experiment in a line: ELISA of IL-17 in the serum. It is filed as in vivo, mouse. As to conditions: mice without MCAO; 1 mg/kg by gastric gavage after each valeric sodium 100 mg/kg intraperitoneal injection, 7 days. The method, then:
as §1, §2

Data set [3] has as its system IL-6. The experiment in a line: ELISA of IL-6 in the brain. The format is in vivo, mouse. As to conditions: young mice, 100 mg/kg intraperitoneal 1 h before and 6 h after 120-min MCAO; 24 h after MCAO; vs saline. Here is the method:
as §2, with “Mice were weighed and anesthetized with isoflurane at 24 h after MCAO. Blood samples were obtained from the right heart after thoracotomy. Blood was centrifuged (13,000 g, 4° C.) after it had been placed at 4° C. for 2 h for the collection of serum. After the collection of blood, mice were perfused with 4° C. saline for brain tissue harvesting. The cerebral cortex (anteroposterior: -1.5 to 2.5 mm, mediolateral: 1.0 to 3.0 mm) was dissected out. All dissection procedures were performed on ice. IL-10,” for “IL-10,”, “[…],” for “peptastin,”, “The amount of IL-10, IL-17, IL-1β and IL-6 in each sample in the brain was normalized by its protein content.” left out

Data set [4] is described as follows: Valeric acid in the blood by ELISA (pilot dosage experiment). It is filed as in vivo, mouse. Conditions: young mice, 100 mg/kg intraperitoneal twice at an interval of 7 h; blood 3 h after second injection; pilot study. The method, then: A pilot experiment was performed to determine the dosage of valeric acid used in this study. Eight-week old mice were divided into two groups: Y-Saline group that received two intraperitoneal 100 μl normal saline injections at an interval of 7 h, and Y-Valeric group that received two intraperitoneal 100 mg/kg in 100 μl valeric sodium injections at an interval of 7 h. One group of 18-month old mice that was labeled O-Saline received two intraperitoneal 100 μl normal saline injections at an interval of 7 h. Blood was harvested 3 h after the second injection of valeric sodium or normal saline to measure valeric acid.
Valeric acid in the blood harvested from the experiment to determine the dosage of valeric acid injected intraperitoneally was measured by using an ELISA kit (catalog number: JM-12270M1, Jingmei Biotechnology, Jiangsu, China) following the manufacturer's instructions.

Data set [5] relates to IL-1β. The experiment in a line: ELISA of IL-1β in the brain. It is filed as in vivo, mouse. Conditions: young mice, 100 mg/kg intraperitoneal 1 h before and 6 h after 120-min MCAO; 24 h after MCAO; vs saline. The method, then:
as §2, with “Mice were weighed and anesthetized with isoflurane at 24 h after MCAO. Blood samples were obtained from the right heart after thoracotomy. Blood was centrifuged (13,000 g, 4° C.) after it had been placed at 4° C. for 2 h for the collection of serum. After the collection of blood, mice were perfused with 4° C. saline for brain tissue harvesting. The cerebral cortex (anteroposterior: -1.5 to 2.5 mm, mediolateral: 1.0 to 3.0 mm) was dissected out. All dissection procedures were performed on ice. IL-10,” for “IL-10,”, “[…],” for “peptastin,”, “The amount of IL-10, IL-17, IL-1β and IL-6 in each sample in the brain was normalized by its protein content.” left out

The test system of data set [6] is C57BL/6J mice. The experiment in a line: Infarct volume after MCAO. It is filed as in vivo, mouse. As to conditions: young mice, 100 mg/kg intraperitoneal 1 h before and 6 h after 120-min MCAO; 24 h after MCAO; vs saline. Here is the method:
As we described previously, left MCAO with intravascular suture technique was performed to mice. Briefly, mice were anesthetized with isoflurane and the rectal temperature was maintained at 37±0.5° C. by the feedback-controlled heating system. A monofilament nylon suture (catalog number: 1622-A1, Beijing CiNontech Co. Ltd., Beijing, China) was used to induce the MCAO via the external carotid artery to the left internal carotid artery until slight resistance was felt. […]
The infarct volumes were assessed 24 h after MCAO by a blinded investigator after 2,3,5-triphenyltetrazolium chloride staining. […] The average infarct area of the rostral and caudal sides of each slice was calculated. The infarct volume of the brain slice was calculated by multiplying the average infarct area of the slice by the thickness of the slice. […] To correct the cerebral edema and differential shrinkage resulting from brain ischemia and tissue processing, the corrected brain infarct volume was calculated: corrected brain infarct volume in percentage=[right hemisphere volume-(left hemisphere volume-left infarction volume)]×100/right hemisphere volume.

In data set [7] the test system is C57BL/6J mice. The experiment in a line: Neurological deficit scores after MCAO. The format is in vivo, mouse. As to conditions: young mice, 100 mg/kg intraperitoneal 1 h before and 6 h after 120-min MCAO; 24 h after MCAO; vs saline. The method, then: (§3) As we described previously, left MCAO with intravascular suture technique was performed to mice. Briefly, mice were anesthetized with isoflurane and the rectal temperature was maintained at 37±0.5° C. by the feedback-controlled heating system. A monofilament nylon suture (catalog number: 1622-A1, Beijing CiNontech Co. Ltd., Beijing, China) was used to induce the MCAO via the external carotid artery to the left internal carotid artery until slight resistance was felt. Mice were re-anesthetized by isoflurane and the sutures were removed at 60 min (only for the set of experiments of old mice with fecal transplantation; this selection was because of a high mortality rate after a longer MCAO) or 120 min (for all other sets of experiments) after the onset of MCAO.
Neurological deficit scores were tested 24 h after the stroke by a blinded investigator [25, 26]. Briefly, mice were scored as follows: zero, no apparent deficits; one, failure to extend right forepaw fully; two, decreased grip of the right forelimb; three, spontaneous movement in all directions, contralateral circling only if pulled by the tail; four, circling or walking to the right; five, walking only if stimulated; six, unresponsiveness to stimulation and with depressed level of consciousness; and seven, dead.

Data set [8] deals with C57BL/6J mice. The experiment in a line: Rotarod test after MCAO. The format is in vivo, mouse. As to conditions: young mice, 100 mg/kg intraperitoneal 1 h before and 6 h after 120-min MCAO; 24 h after MCAO; vs saline. Here is the method:
as §3
Rotarod test was performed to evaluate the motor coordination as we described before. All mice received the training for three continuous days before the induction of brain ischemia. The formal test was performed just 24 h before and 24 h after the MCAO. […] The latency and the speed were recorded when the tested mice fell off the rod. […] The speed-latency index, which is latency(s)×speed (rpm), was calculated. The ratio of mean index of the five trials obtained after MCAO and before MCAO was calculated to reflect the change in coordinate function of each mouse.
In general terms: Falling from the rotarod earlier than controls is read as motor impairment.

Data set [9] concerns C57BL/6J mice. The experiment in a line: Barnes maze test, young adult mice. The format is in vivo, mouse. As to conditions: surgery mice; intracerebroventricular 10 μg/kg at 0, 24, 48 and 72 h after surgery; vs solvent.
For data set [10], the system named is C57BL/6J mice. The experiment in a line: Novel object recognition test, young adult mice. It is filed as in vivo, mouse. As to conditions: surgery mice; intracerebroventricular 10 μg/kg at 0, 24, 48 and 72 h after surgery; vs solvent.
In a further data set the test system is C3. The experiment in a line: C3 in the hippocampus by ELISA. It is filed as in vivo, mouse. As to conditions: intracerebroventricular injection at surgery; hippocampus 48 h after surgery. Here is the method:
(§4) IL-1β, IL-6, C3 and GDNF in the hippocampus were detected by using ELISA kits. For testing the IL-1β, IL-6 and GDNF, brain tissues were homogenized on ice in the RIPA buffer containing 25 mM Tris-HCl with pH 7.6, 150 mM NaCl, 1% sodium deoxycholate, 0.1% SDS and a protease inhibitor cocktail containing 10 mg/ml aproteinin, 5 mg/ml peptastin, 5 mg/ml leupetin and 1 mM phenylmethane sulfonylfluoride. For C3 testing, brain tissues were homogenized on ice in the PTR buffer (supplied in the kit). The supernatant was collected for ELISA detection after the homogenate was centrifuged at 13,000 g for 20 min at 4° C. and the protein concentration was determined by the BCA protein assay (Bio-Rad, Hemel Hempstead, Herts, UK). IL-1β, IL-6, C3 and GDNF in supernatant of brain were detected according to the manufacturer's instruction for ELISA, and the amount of them in each sample in the brain was normalized by its total protein content and was expressed as pg/mg protein.

For data set [11], the system named is IL-6. The experiment in a line: IL-6 in the hippocampus by ELISA. As to conditions: intracerebroventricular injection at surgery; hippocampus 48 h after surgery. It is filed as in vivo, mouse. Here is the method:
as §4

Data set [12] deals with IL-1β. The experiment in a line: IL-1β in the hippocampus by ELISA. The format is in vivo, mouse. Conditions: intracerebroventricular injection at surgery; hippocampus 48 h after surgery. Here is the method:
as §4

We go through 6 molecules from patent US20250319139A1, “METHODS FOR TREATING NEUROINFLAMMATION” (University of Virginia Patent Foundation, priority 2021, published 2025).

In the case of `Cc1nnc(SCC2=C(C(=O)O)N3C(=O)[C@@H](NC(=O)Cn4cnnn4)[C@H]3SC2)s1` [cefazolin], the “gut microbiota in the colon by 16S rRNA analyses” value with gut microbiota is recorded as “almost undetectable level”.

`C[C@]1(C(=O)N(CCCC(=O)O)Cc2cccc(Cl)c2)CCN1C(=O)c1csc2ccccc12` [GLPG-0974]: the “increase of IL-17 in the brain (cerebral cortex) caused by valeric acid” value with IL-17 [1] is “blocked the increase”. In addition, the “increase of IL-17 in the blood caused by valeric acid” value in the data set on IL-17 [2] was “blocked the increase”.

For the molecule `CCCCC(=O)[O-].[Na+]` [valeric sodium], in the data set with IL-6 [3], the “IL-6 in the ischemic penumbral brain tissues” value was “increased”. Further, the “concentrations of valeric acid in the blood” value in data set [4] is on record as “a level similar to that in the old mice”. In the data set with IL-1β [5], the “IL-1β in the ischemic penumbral brain tissues” value is “increased”. Besides, the infarct volume entry in the data set with C57BL/6J mice [6] is reported as “larger”. Besides, the neurological deficit scores entry in the data set with C57BL/6J mice [7] is on record as “worse”. In addition, the performance on rotarod entry in the data set on C57BL/6J mice [8] was “poorer performance”.

Regarding `NC(N)=NCCC[C@H](NC(=O)COCC(c1ccccc1)c1ccccc1)C(=O)O` [SB290157], the “time to identify target box in Barnes maze” value with C57BL/6J mice [9] was “took less time”. In addition, in the data set with C57BL/6J mice [10], the “performance in novel object recognition test” value is given as “improved the performance”.

B1: GDNF: recombinant mouse GDNF (glia-derived nerve factor) (protein, UniProt P48540 78-211, looked up)
Glial cell line-derived …: SPDKQAAALPRRERNRQAAAASPENSRGKGRRGQRGKNRGCVLTAIHLNVTDLGLGYETKEELIFRYCSGSCESAETMYDKILKNLSRSRRLTSDKVGQACCRPVAFDDDLSFLDDNLVYHILRKHSAKRCGCI
With B1, the “C3 levels in the hippocampus after surgery” value in the data set on C3 is recorded as “reduced”. Also, the “IL-6 levels in the hippocampus after surgery” value in the data set on IL-6 [11] is “reduced”. Also, in the data set on IL-1β [12], the “IL-1β levels in the hippocampus after surgery” value was “reduced”.

B2: heat-inactivated GDNF: heat-denatured (5 min at 100° C.) GDNF solution (protein, UniProt P48540 78-211, looked up)
Glial cell line-derived …: SPDKQAAALPRRERNRQAAAASPENSRGKGRRGQRGKNRGCVLTAIHLNVTDLGLGYETKEELIFRYCSGSCESAETMYDKILKNLSRSRRLTSDKVGQACCRPVAFDDDLSFLDDNLVYHILRKHSAKRCGCI
modifications: heat-denatured
notes: heat-denatured (5 min at 100° C.) GDNF solution
On to B2, for which the “C3 levels in the hippocampus after surgery” value in the data set on C3 is “not”. The “IL-6 levels in the hippocampus after surgery” value with IL-6 [11] is on record as “not”.
